{"source": "paper PMC7689089", "about": "“Regorafenib combined with PD1 blockade increases CD8 T-cell infiltration by inducing CXCL10 expression in hepatocellular carcinoma” (Journal for Immunotherapy of Cancer, 2020)", "key": {"RIL-175 HCC vasculature": {"tested_on": "RIL-175 HCC vasculature", "test": "Tumor vessel and hypoxia immunofluorescence (CD31, α-SMA, CA-IX) in RIL-175 orthotopic HCC", "assay_type": "in vivo, mouse", "settings": "regorafenib 10 mg/kg; day 12; vs control", "protocol": "Figure 1 Dose-dependent effects of regorafenib on vascular normalization when used in combination with programmed cell death protein 1 (PD1) blockade in RIL-175 hepatocellular carcinoma (HCC) model. (A, B) Mice with established (4–5 mm in diameter) HCCs were treated with anti-PD1 therapy (P) alone or in combination with 5 mg/kg (R5), 10 mg/kg (R10) or 20 mg/kg (R20) regorafenib versus control (C) (n=8 mice per group, 1-week treatment). We used immunofluorescence (IF) for evaluation of tumor vessels by CD31 and α-smooth muscle actin (α-SMA) immunostaining. […] Representative IF of tumor sections after staining for CD31 (for endothelial cells in green) and α-SMA (for pericytes in red) and DAPI counterstaining (in blue). Five random fields from the tumor center (defined as no inclusion of the edge of the tumor) were evaluated for each sample. Data represent mean values. Scale bars=500 µm. (C) Representative IF confocal microscopy images of tumor vessels using and CD31 staining (green) and tissue hypoxia using CA-IX staining (red) of whole liver sections; scale bars=2 mm. […] (E) Representative IF confocal microscopy images of mature tumor vessels using CD31 staining (green) and α-SMA staining (red) of RIL-175 tumors; scale bars, 100 µm."}, "RIL-175 cells": {"tested_on": "RIL-175 cells", "test": "CXCL10 secretion by RIL-175 cells in vitro (ELISA)", "assay_type": "cell-based, mouse", "settings": "36 hours", "source_text": "To determine if CXCL10 was produced by murine HCC cells in response to regorafenib treatment, we next cultured RIL-175 cells with various concentration of regorafenib in vitro and measured the CXCL10 levels by ELISA. […]\ntreated by regorafenib as standard of care (HCC) (using the DFCI Protocol No.: 13-416 “Collection of Specimens and Clinical Data for Patients with Known or Suspected Solid Tumors”, PI, Dr. Juric, MGH) or in a phase I clinical trial of regorafenib monotherapy in acute myeloid leukemia (AML) patients (ClinicalTrials.gov Identifier: NCT03042689, PI, Hobbs, MGH). Both protocols have been IRB approved, and written consent was obtained from all patients.\nProtein analyses. Western blotting was performed using antibodies against Stat1 (D1K9Y), phosphorylated (p)-Stat1 (Tyr701) (D4A7), Stat3 (79D7), p-Stat3 (Ser727) (Cell Signaling Technology, Danvers, MA), and IFN-γ (EPR1108) (Abcam, Cambridge, MA). Multiplexed protein array analysis was performed for protein extracts from whole tumors, using V-PLEX Proinflammatory Panel 1 Mouse Kit, V-PLEX Cytokine Panel 1 Mouse Kit and V-PLEX […] (Meso-Scale Discovery, Rockville, MD). For cell supernatant collection, 1x10^6 of RIL-175 cells were cultured in DMEM medium with 2% FBS and regorafenib was given in a various dose.\nSupernatant was collected after 36hr of incubation and multiplexed protein array analysis was done using the same kit above.\nFlow cytometry analysis. Tumor tissues were extracted from the mice, weighted and minced with a scalpel. Hank’s buffered salt solution (HBSS) with 1.5mg/ml of collagenase and hyaluronidase was added to the minced tissues and incubated for 30 min at 37°C. After incubation, digested tissues were passed through the 70μm cell strainer and washed with PBS with 2% BSA. After preparation, cells were suspended in 2ml of PBS with 2% BSA, then counted using a cell counting plate (Kova slide) (if the final concentration of cell exceeded 10^7 cells/ml, a dilution factor was applied). One hundred microliters of this suspension were used per subsequent flow cytometry staining. […]"}, "HCA1 cells": {"tested_on": "HCA1 cells", "test": "CXCL10 secretion by HCA1 cells in vitro", "assay_type": "cell-based, mouse", "settings": "36hr; compared with increase in RIL-175 cells"}, "RIL-175 orthotopic HCC": {"tested_on": "RIL-175 orthotopic HCC", "test": "Survival, orthotopic RIL-175 HCC in Rag1–/–/C57Bl/6 mice", "assay_type": "in vivo, mouse", "settings": "regorafenib 10 mg/kg; Rag1–/– mice lacking functional T cells", "protocol": "Regorafenib was provided by Bayer and administered by oral gavage daily at a dose of 5, 10 and 20 mg/kg in 34% 1,2-propandiol (Sigma-Aldrich), 34% PEG400 (Sigma-Aldrich), 12% pluronic F68 (Thermo Fischer Scientific, Waltham, Massachusetts, USA), and 20% water, as per manufacturer’s recommendation. Mouse anti-PD1 antibody (clone RMP-014) was purchased from BioXcell (Lebanon, New Hampshire, USA) and Mouse IgG isotype control was purchased from Thermo Fischer Scientific. The STAT3 inhibitor LLL12 was purchased from BioVision (Milpitas, California, USA). Antimouse PD1 antibody or IgG (control) were given intraperitoneally at a dose of 10 mg/kg thrice weekly, as described.[11] Daily gavage of vehicle and intraperitoneal injection of 10 mg/kg of isotype-matched IgG were given as control treatments for anti-PD1 antibody. For the survival studies, moribund status was used as the end point and moribund was defined as symptoms of prolonged distress, >15% of weight loss compared with the starting date, body condition score >2 and tumor size of >24 mm in diameter.\nAll statistical analyzes were performed using Stata software, V.14.1 (StataCorp, College Station, Texas, USA). […] Quantitative variables were compared using Student’s t-test. […] Statistical analyses in the survival experiments were performed by Cox proportional hazard model and HR and 95% CIs were calculated as well."}, "[1]": {"test": "Pharmacokinetic analysis of regorafenib and metabolites in plasma and tumor tissue of mice with HCC and liver damage", "settings": "n=4-5 mice", "procedure": "From the orthotopic HCC and liver damage mouse models described above, blood samples were collected at 1, 4, 7 and 24 hours after once-daily oral administration of 5, 10 and 20 mg/kg regorafenib, respectively, for 5 days. Anti-PD1 antibody was given on days 1 and 4 with dose of 10 mg/kg by intraperitoneal injection. Blood samples were drawn from four to five animals per sampling time point. Regorafenib and its active metabolites M-2, M-4 and M-5 were analyzed in plasma samples using a validated bioanalytical liquid chromatography-tandem mass spectrometry.[25 33] Pharmacokinetic (PK) parameters were derived from the area under the plasma concentration versus time curve (AUC) using a non-compartmental analysis.\nIn addition, we evaluated PK parameters in HCC-bearing mice after regorafenib administration alone at doses of 5, 10 and 20 mg/kg or in combination with anti-PD1 therapy at the 10 mg/kg regorafenib dose for 5 days to achieve a steady state."}}}
{"smiles": "CNC(=O)c1cc(Oc2ccc(NC(=O)Nc3ccc(Cl)c(C(F)(F)F)c3)c(F)c2)ccn1", "note": "[regorafenib]", "values": [{"measurement": "Hypoxic tissue area measured by CA-IX staining", "setting": "RIL-175 HCC vasculature", "value": "significantly decreased"}, {"measurement": "MVD", "setting": "RIL-175 HCC vasculature", "value": "significant increase"}, {"measurement": "Regorafenib concentration at peak CXCL10 secretion", "setting": "RIL-175 cells", "value": 1, "unit": "µM"}, {"measurement": "Level of CXCL10 secreted by RIL-175 cells", "setting": "RIL-175 cells; various concentrations, n=6", "value": "significantly increased"}, {"measurement": "Level of CXCL10 secreted by HCA1 cells", "setting": "HCA1 cells", "value": "to a lesser extent"}, {"measurement": "Survival", "setting": "RIL-175 orthotopic HCC", "value": "no significant benefit"}, {"measurement": "Plasma maximum concentration (Cmax), R10 alone versus R10+P", "setting": "[1]", "value": "No difference"}]}
